According to patent US10441608B2, “Continuous methods for treating liquids and manufacturing certain constituents (e.g., nanoparticles) in liquids, apparatuses and nanoparticles and nanoparticle/liquid solution(s) resulting therefrom” (Clene Nanomedicine, Inc., priority 2009, dated 2019):
Converted amounts (≈) assume the structure as drawn. “And” between values parts separate entries of the source, which are not always exact repeats. Identical values can stand only once. Like-named read-outs stand apart in the source and are kept apart here.

What was measured:
[1] = tested on: Gram-Positive and Gram Negative bacteria; assay type: cell-based
[2] = tested on: Staphylococcus aureus ATCC-29213; assay: Broth microdilution MIC/MID 50 against Staphylococcus aureus; assay type: cell-based
Text: The clinical and laboratory standards institute Broth Microdilution Methodology was employed, however, the growth medium used was an “RPMI” medium. Additionally, the methods for dilution and antimicrobial susceptibility tests for bacteria that grow aerobically were also followed with the noted exception of testing with alternative media (CLSI document […], CLSI, Wayne, Pa.). […] Under the column, “Isolate” identification beginning with either “GP” or “GN” occur. The “GP” corresponds to Gram-Positive bacteria and the “GN” corresponds to “Gram Negative” bacteria. Each of the organisms are specifically listed after the isolate identification.

C[C@H]1COc2c(N3CCN(C)CC3)c(F)cc3c(=O)c(C(=O)O)cn1c23 [Levofloxacin]
MID/MIC (amount of antibiotic) ([1]; GP33 EMRSA16 Staphylococcus aureus (MRSA), SSCmec type 2): >8 µg/mL | MID/MIC (amount of antibiotic) ([1]; GP34 EMRSA1 Staphylococcus aureus (MRSA), SSCmec type 3): 0.12 µg/mL | MID/MIC (amount of antibiotic) ([1]; GP35 EMRSA15 Staphylococcus aureus (MRSA), SSCmec type 4): 0.06 µg/mL | MID/MIC (amount of antibiotic) ([1]; GP36 HT2001254 Staphylococcus aureus (MRSA), PVL positive): 0.12 µg/mL | MID/MIC (amount of antibiotic) ([1]; GP37 Streptococcus agalactiae, antibiotic-susceptible clinical isolate): 1 µg/mL | MID/MIC (amount of antibiotic) ([1]; GP38 Streptococcus agalactiae, macrolide-resistant clinical isolate): 1 µg/mL | MID/MIC (amount of antibiotic) ([1]; GP39 Group C Streptococcus, antibiotic-susceptible clinical isolate): 0.5 µg/mL | MID/MIC (amount of antibiotic) ([1]; GP41 Group G Streptococcus, antibiotic-susceptible clinical isolate): 0.25 µg/mL | MID/MIC (amount of antibiotic) ([1]; GP42 Group G Streptococcus, macrolide-resistant clinical isolate): 0.25 µg/mL | MID/MIC (amount of antibiotic) ([1]; GP43 Streptococcus mitis, antibiotic-susceptible clinical isolate): 1 µg/mL | MID/MIC (amount of antibiotic) ([1]; GP46 Streptococcus constellatus, macrolide-resistant clinical isolate): 1 µg/mL | MID/MIC (amount of antibiotic) ([1]; GP47 Streptococcus oralis, antibiotic-susceptible clinical isolate): 1 µg/mL | MID/MIC (amount of antibiotic) ([1]; GP48 Streptococcus oralis, macrolide-resistant clinical isolate): 1 µg/mL | MID/MIC (amount of antibiotic) ([1]; GP49 Streptococcus bovis, antibiotic-susceptible clinical isolate): 1 µg/mL | MID/MIC (amount of antibiotic) ([1]; GP50 Streptococcus bovis, macrolide-resistant clinical isolate): 0.5 µg/mL and 1 µg/mL | MID/MIC (amount of antibiotic) ([1]; GP51 Streptococcus sanguis, antibiotic-susceptible clinical isolate): 1 µg/mL and 0.5 µg/mL | MID/MIC (amount of antibiotic) ([1]; GP52 Streptococcus sanguis, macrolide-resistant clinical isolate): 1 µg/mL | MID/MIC (amount of antibiotic) ([1]; GP53 Clostridium perfringens, antibiotic-susceptible clinical isolate, supplemented with 2% serum and 1 μg/mL Vit K): 0.015 µg/mL | MID/MIC (amount of antibiotic) ([1]; GP55 Group C Streptococcus, antibiotic-resistant clinical isolate): 0.5 µg/mL | MIC/MID 50 ([1]; Listeria monocytogenes - antibiotic-susceptible clinical isolate): 0.50 µg/mL (≈ 1.38 µM) | MIC/MID 50 ([1]; Moraxella catarrhalis β-lactamase positive clinical isolate (first of two lines so named)): 0.06 µg/mL (≈ 0.166 µM) | MIC/MID 50 ([1]; Moraxella catarrhalis β-lactamase positive clinical isolate (second of two lines so named)): 0.06 µg/mL (≈ 0.166 µM) | MIC/MID 50 ([1]; Morganella morganii - multi-drug resistant clinical isolate): 1.00 µg/mL (≈ 2.77 µM) | MID/MIC (amount of antibiotic) ([1]; P8119035 Citrobacter freundii, resistant clinical isolate): 8 µg/mL | MIC/MID 50 ([1]; Proteus mirabilis - antibiotic-susceptible clinical isolate): 0.06 µg/mL (≈ 0.166 µM) | MIC/MID 50 ([1]; Proteus mirabilis - multi-drug resistant clinical isolate): 2.00 µg/mL (≈ 5.53 µM) | MIC/MID 50 ([1]; Staphylococcus aureus - multi-drug-resistant clinical isolate): 4.00 µg/mL (≈ 11.1 µM) | MIC/MID 50 ([1]; Staphylococcus aureus - teicoplanin-intermediate clinical isolate): 4.00 µg/mL (≈ 11.1 µM) | MIC/MID 50 ([1]; Staphylococcus aureus ATCC 25923 - antibiotic-susceptible control strain): 0.12 µg/mL (≈ 0.332 µM) | MIC/MID 50 ([1]; Staphylococcus aureus ATCC 43300 - methicillin-resistant control strain): 0.25 µg/mL (≈ 0.692 µM) | MIC/MID 50 ([1]; Staphylococcus epidermidis antibiotic susceptible clinical isolate): 0.12 µg/mL (≈ 0.332 µM) | MIC/MID 50 ([1]; Staphylococcus epidermidis methicillin-resistant clinical isolate): 0.25 µg/mL (≈ 0.692 µM) | MIC/MID 50 ([1]; Staphylococcus haemolyticus - antibiotic susceptible clinical isolate): 0.50 µg/mL (≈ 1.38 µM) | MIC/MID 50 ([1]; Staphylococcus saprophyticus - antibiotic susceptible clinical isolate): 0.50 µg/mL (≈ 1.38 µM) | MIC/MID 50 ([1]; Stenotrophomonas maltophila - antibiotic-resistant clinical isolate): 1.00 µg/mL (≈ 2.77 µM) | MIC/MID 50 ([1]; Stenotrophomonas maltophilia - antibiotic-susceptible clinical isolate): 0.25 µg/mL (≈ 0.692 µM) | MIC/MID 50 ([1]; Streptococcus agalactiae - antibiotic-susceptible clinical isolate): 1.00 µg/mL (≈ 2.77 µM) | MIC/MID 50 ([1]; Streptococcus agalactiae - macrolide-resistant clinical isolate): 1.00 µg/mL (≈ 2.77 µM) | MIC/MID 50 ([1]; Streptococcus bovis - antibiotic-susceptible clinical isolate): 1.00 µg/mL (≈ 2.77 µM) | MIC/MID 50 ([1]; Streptococcus bovis - macrolide-resistant clinical isolate): 1.00 µg/mL (≈ 2.77 µM) | MIC/MID 50 ([1]; Streptococcus mitis - macrolide-resistant clinical isolate): 1.00 µg/mL (≈ 2.77 µM) | MIC/MID 50 ([1]; Streptococcus oralis - antibiotic-susceptible clinical isolate): 1.00 µg/mL (≈ 2.77 µM) | MIC/MID 50 ([1]; Streptococcus oralis - macrolide-resistant clinical isolate): 1.00 µg/mL (≈ 2.77 µM) | MIC/MID 50 ([1]; Streptococcus pneumoniae - ATCC 49619 antibiotic-susceptible control strain): 1.00 µg/mL (≈ 2.77 µM) | MIC/MID 50 ([1]; Streptococcus pneumoniae - multi-drug resistant clinical isolate): 1.00 µg/mL (≈ 2.77 µM) | MIC/MID 50 ([1]; Streptococcus pneumoniae - pencillin-susceptible clinical isolate): 1.00 µg/mL (≈ 2.77 µM) | MIC/MID 50 ([1]; Streptococcus pneumoniae - penicillin-intermediate clinical isolate): 0.50 µg/mL (≈ 1.38 µM) | MIC/MID 50 ([1]; Streptococcus pneumoniae - penicillin-resistant clinical isolate): 0.50 µg/mL (≈ 1.38 µM) | MIC/MID 50 ([1]; Streptococcus pyogenes - Macrolide (MLS) resistant clinical isolate): 0.50 µg/mL (≈ 1.38 µM) | MIC/MID 50 ([1]; Streptococcus sanguis - antibiotic-susceptible clinical isolate): 0.50 µg/mL (≈ 1.38 µM) | MIC/MID 50 ([1]; Streptococcus sanguis - macrolide-resistant clinical isolate): 1.00 µg/mL (≈ 2.77 µM) | MID/MIC (amount of antibiotic) ([2]; GP01 Staphylococcus aureus ATCC 29213, antibiotic-susceptible control strain): 0.12 µg/mL | MIC/MID 50 ([2]; Staphylococcus aureus ATCC 29213 - antibiotic-susceptible control strain): 0.12 µg/mL (≈ 0.332 µM)
